Holding throughout (type): binding
The target in assay [1] is T1, HeLa cell extract proteins (Homo sapiens, UniProt P04040).
T1 construct: endogenous in cells; host or cells: HeLa cell extract
T1 sequence (P04040 1-527): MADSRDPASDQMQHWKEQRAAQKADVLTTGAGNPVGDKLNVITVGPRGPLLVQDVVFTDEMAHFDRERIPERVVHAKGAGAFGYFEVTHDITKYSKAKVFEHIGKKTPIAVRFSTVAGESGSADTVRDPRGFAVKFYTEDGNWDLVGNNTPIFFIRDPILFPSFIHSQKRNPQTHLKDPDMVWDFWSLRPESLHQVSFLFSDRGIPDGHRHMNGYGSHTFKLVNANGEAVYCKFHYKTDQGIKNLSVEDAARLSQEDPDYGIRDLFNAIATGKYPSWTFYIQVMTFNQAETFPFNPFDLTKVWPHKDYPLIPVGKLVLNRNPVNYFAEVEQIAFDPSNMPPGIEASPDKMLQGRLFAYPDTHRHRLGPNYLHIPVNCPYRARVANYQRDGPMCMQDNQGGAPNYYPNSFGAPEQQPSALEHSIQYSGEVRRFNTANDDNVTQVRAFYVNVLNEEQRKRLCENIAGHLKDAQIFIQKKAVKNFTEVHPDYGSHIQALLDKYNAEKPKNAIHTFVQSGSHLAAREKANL

The target of assay [2] is T2, HeLa cell extract proteins (Homo sapiens, UniProt P04183).
T2 construct: endogenous in cells; host or cells: HeLa cell extract
T2 sequence (P04183 1-234): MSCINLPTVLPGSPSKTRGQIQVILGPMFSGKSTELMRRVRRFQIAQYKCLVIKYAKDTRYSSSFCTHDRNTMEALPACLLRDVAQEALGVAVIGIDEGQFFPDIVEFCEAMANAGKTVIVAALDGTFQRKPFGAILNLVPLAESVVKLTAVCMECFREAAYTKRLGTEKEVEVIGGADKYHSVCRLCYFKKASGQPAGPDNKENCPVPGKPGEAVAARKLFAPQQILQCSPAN

Assay [3] addresses T3, HeLa cell extract proteins (Homo sapiens, UniProt P49721).
T3 construct: endogenous in cells; host or cells: HeLa cell extract

In assay [4] the target is T4, HeLa cell extract proteins (Homo sapiens, UniProt Q7L8L6).
T4 construct: endogenous in cells; host or cells: HeLa cell extract
T4 sequence (Q7L8L6 28-764): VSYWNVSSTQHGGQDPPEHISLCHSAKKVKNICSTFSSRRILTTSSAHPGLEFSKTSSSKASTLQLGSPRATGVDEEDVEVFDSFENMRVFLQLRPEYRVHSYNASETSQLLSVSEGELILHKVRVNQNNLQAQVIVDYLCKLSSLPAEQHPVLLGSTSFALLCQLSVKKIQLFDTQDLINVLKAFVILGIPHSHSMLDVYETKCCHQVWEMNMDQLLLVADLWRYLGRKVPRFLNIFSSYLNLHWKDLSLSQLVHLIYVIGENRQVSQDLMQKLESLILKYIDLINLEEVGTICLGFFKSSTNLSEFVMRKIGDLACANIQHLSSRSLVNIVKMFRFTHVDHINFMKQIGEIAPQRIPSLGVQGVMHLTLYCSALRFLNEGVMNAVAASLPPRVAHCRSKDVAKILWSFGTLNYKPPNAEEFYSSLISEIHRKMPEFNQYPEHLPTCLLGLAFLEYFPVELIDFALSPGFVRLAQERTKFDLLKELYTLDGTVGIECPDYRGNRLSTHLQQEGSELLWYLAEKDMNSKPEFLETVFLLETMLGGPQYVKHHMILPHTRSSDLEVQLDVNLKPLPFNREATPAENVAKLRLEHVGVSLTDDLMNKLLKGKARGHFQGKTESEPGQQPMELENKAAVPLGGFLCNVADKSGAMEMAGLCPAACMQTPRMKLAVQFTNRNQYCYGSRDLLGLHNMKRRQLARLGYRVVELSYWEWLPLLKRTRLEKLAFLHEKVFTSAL

Assay [5] has as its target T5, HeLa cell extract proteins (Homo sapiens, UniProt Q96PK6).
T5 construct: endogenous in cells; host or cells: HeLa cell extract
T5 sequence (Q96PK6 1-669): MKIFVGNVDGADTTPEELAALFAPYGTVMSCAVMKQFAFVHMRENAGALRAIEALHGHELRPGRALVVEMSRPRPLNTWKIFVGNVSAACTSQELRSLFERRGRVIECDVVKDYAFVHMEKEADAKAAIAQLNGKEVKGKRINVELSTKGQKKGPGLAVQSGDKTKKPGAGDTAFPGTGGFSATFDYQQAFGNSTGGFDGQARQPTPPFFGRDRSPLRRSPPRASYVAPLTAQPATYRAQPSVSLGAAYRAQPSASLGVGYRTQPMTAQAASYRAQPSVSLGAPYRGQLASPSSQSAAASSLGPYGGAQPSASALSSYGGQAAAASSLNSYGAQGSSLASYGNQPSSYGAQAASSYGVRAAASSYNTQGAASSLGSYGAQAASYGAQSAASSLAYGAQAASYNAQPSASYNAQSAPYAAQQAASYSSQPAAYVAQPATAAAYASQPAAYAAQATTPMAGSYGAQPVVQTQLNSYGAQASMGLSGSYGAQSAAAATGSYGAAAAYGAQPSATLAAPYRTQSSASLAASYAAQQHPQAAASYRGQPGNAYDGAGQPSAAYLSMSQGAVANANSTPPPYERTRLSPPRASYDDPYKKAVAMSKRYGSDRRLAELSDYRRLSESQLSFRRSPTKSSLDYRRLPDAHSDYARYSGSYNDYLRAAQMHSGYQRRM

Where [6] appears, read: HeLa, protein TK1 (29 KDA PROTEIN).

Like-named read-outs stand apart in the source and are kept apart here.

T3 sequence (P49721 whole entry): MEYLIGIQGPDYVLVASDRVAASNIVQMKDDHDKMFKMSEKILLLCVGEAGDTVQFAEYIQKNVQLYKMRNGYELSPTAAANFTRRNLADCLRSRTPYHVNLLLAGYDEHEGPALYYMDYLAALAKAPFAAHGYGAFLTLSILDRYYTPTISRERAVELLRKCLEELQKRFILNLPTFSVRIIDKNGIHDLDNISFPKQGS

`CCCCCCOc1cccc(Cc2cnc(N)nc2N)c1` [compound 2]: the “fold changes relative to vehicle control” value in assay [1] (captured protein CAT, HeLa) is recorded as 1.03; in assay [2] (protein TK1, HeLa), 1.16; in assay [3] (HeLa, protein PSMB2), 1.24; in assay [4] (captured protein FASTKD5, HeLa) it was 0.94; in assay [5] (captured protein RBM14, HeLa) it was 1.

As to `NCCOCCOCC(=O)Nc1nc2ncc(CNc3ccc(C(=O)NC(CCC(=O)O)C(=O)O)cc3)nc2c(=O)[nH]1` (centres unmarked) [compound 6], the “fold changes relative to vehicle control” value turned out to be 0.94 in assay [1] (protein CAT, HeLa); 1.06 in assay [2] (setting [6]); 1.03 in assay [3] (HeLa, captured protein PSMB2); 0.88 in assay [4] (HeLa, protein FASTKD5); 1.06 in assay [5] (HeLa, captured protein RBM14).

Regarding `CCCCCCOc1ccc(Cc2cnc(N)nc2N)cc1` [compound 1], the “fold changes relative to vehicle control” value is 0.77 in assay [1] (captured protein CAT, HeLa); 0.96 in assay [2] (protein TK1, HeLa); 1.03 in assay [3] (HeLa, protein PSMB2); 1.07 in assay [4] (captured protein FASTKD5, HeLa); 0.72 in assay [5] (captured protein RBM14, HeLa).

As to `Nc1nc2c(c(=O)[nH]1)N(C=O)C(CNc1ccc(C(=O)N[C@@H](CCC(=O)O)C(=O)O)cc1)CN2` (some centres unmarked) [LEU, leucovorin], the “fold changes relative to vehicle control” value in assay [1] (protein CAT, HeLa) is recorded as 0.87; in assay [2] (setting [6]), 0.97; in assay [3] (HeLa, captured protein PSMB2), 1.2; in assay [4] (HeLa, protein FASTKD5) it was 0.87; in assay [5] (HeLa, captured protein RBM14) it was 0.92.

As for `NCCCNc1ccc(C(=O)NC(CCC(=O)O)C(=O)O)cc1` (centres unmarked) [compound 7], the “fold changes relative to vehicle control” value is recorded as 1.39 in assay [1] (protein CAT, HeLa); 1.12 in assay [2] (setting [6]); 1.07 in assay [3] (HeLa, captured protein PSMB2); 0.97 in assay [4] (HeLa, protein FASTKD5); 1.1 in assay [5] (HeLa, captured protein RBM14).

Turning to `Nc1nc2[nH]cc(CCc3ccc(C(=O)N[C@@H](CCC(=O)O)C(=O)O)cc3)c2c(=O)[nH]1` [PTX, pemetrexed], the “fold changes relative to vehicle control” value was found to be 0.88 in assay [1]; 0.93 in assay [2]; 1.13 in assay [3]; 0.84 in assay [4]; 0.99 in assay [5].

Turning to `Nc1nc2cccc(-c3ccccc3)c2n1Cc1ccc(Cl)c(Cl)c1` [compound 3], the “fold changes relative to vehicle control” value in assay [1] (captured protein CAT, HeLa) is 0.78; in assay [2] (protein TK1, HeLa), 1.16; in assay [3] (HeLa, protein PSMB2), 1.07; in assay [4] (captured protein FASTKD5, HeLa), 1.06; in assay [5] (captured protein RBM14, HeLa), 0.87.
